# Results published in patent publication US8658642B2 (Axikin Pharmaceuticals, Inc., priority 2009, dated 2014).
# Tests used:
# CCR3 = biological target: T1, CCR3 (Homo sapiens, UniProt P51677); test: CCR3 receptor binding assay ([125I]-labeled human eotaxin/CCL11 displacement on cells); conditions: 0.1 nM [125I]-labeled human eotaxin/CCL11, 2×10^5 cells/well, 60 min at room temperature
# T1 sequence (P51677 1-355): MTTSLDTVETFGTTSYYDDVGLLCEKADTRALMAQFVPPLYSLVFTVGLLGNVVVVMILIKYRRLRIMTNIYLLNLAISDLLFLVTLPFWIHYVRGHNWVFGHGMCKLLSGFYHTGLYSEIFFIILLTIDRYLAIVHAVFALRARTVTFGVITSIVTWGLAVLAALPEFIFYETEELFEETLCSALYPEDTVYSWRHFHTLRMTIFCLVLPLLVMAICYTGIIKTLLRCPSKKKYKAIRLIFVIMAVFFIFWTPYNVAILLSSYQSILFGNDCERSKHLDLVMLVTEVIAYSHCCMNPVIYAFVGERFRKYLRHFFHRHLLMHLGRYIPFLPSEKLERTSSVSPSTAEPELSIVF
# Experimental: CCR3 Receptor Binding Assay
# Cells were washed once with PBS and resuspended in a binding buffer (25 mM HEPES pH 7.6, 5 mM MgCl2, 1 mM CaCl2, 0.5% BSA, 0.1% NaN3). […] of cell suspension (2×10^5 cells/well) and 0.1 nM [^125I]-labeled human eotaxin/CCL11 (2000 Ci/mmol specific activity) were mixed in a 96-well U-bottom polypropylene plate, and incubated for 60 min at room temperature for the binding reaction. The cell suspension was then transferred to a filtration plate (#MAFB, Millipore), and washed 3 times with the binding buffer containing 0.5 M NaCl, scintillant added, and the radioactivity was counted on a TopCount (Packard). For the determination of non-specific binding, the cell suspension and [^125I]-labeled human eotaxin/CCL11 were incubated in the presence of 500 nM of unlabeled human eotaxin/CCL11. See, lino et al., “Molecular cloning and functional characterization of cynomolgus monkey (Macaca fascicularis) CC chemokine receptor, CCR3,” Cytokine 2002, 19, 276-286.
Ki (CCR3),melting point,Structure (SMILES)
0.05 to 0.5 µM,,CCOC(=O)CCNC(=S)N1CCN(S(=O)(=O)c2cc(C#N)ccc2Oc2cc(Cl)cc(Cl)c2)CC1 [Compound 143]
≤ 0.05 µM,,N#Cc1ccc(Oc2cc(Cl)cc(Cl)c2)c(S(=O)(=O)N2CCN(C(=S)Nc3ccccc3)CC2)c1 [Compound 144]
≤ 0.05 µM,,N#Cc1ccc(Oc2cc(Cl)cc(Cl)c2)c(S(=O)(=O)N2CCN(C(=S)NC(=O)c3ccccc3)CC2)c1 [Compound 145]
≤ 0.05 µM,,CSCCCNC(=S)N1CCN(S(=O)(=O)c2cc(C#N)ccc2Oc2cc(Cl)cc(Cl)c2)CC1 [Compound 146]
> 5 µM,,N#Cc1ccc(Oc2cc(Cl)cc(Cl)c2)c(S(=O)(=O)N2CCN(C(=S)NC(=O)/C=C/c3ccccc3)CC2)c1 [Compound 147]
0.05 to 0.5 µM,,N#CCC(=O)N1CCN(S(=O)(=O)c2cc(C#N)ccc2Oc2cc(Cl)cc(Cl)c2)CC1 [Compound 148]
> 5 µM,,N#Cc1ccc(Oc2cc(Cl)cc(Cl)c2)c(S(=O)(=O)N2CCN(C(=S)NCc3cccc(Cl)c3)CC2)c1 [Compound 149]
> 5 µM,,C=CNC(=O)N1CCN(S(=O)(=O)c2cc(C#N)ccc2Oc2cc(Cl)cc(Cl)c2)CC1 [Compound 150]
> 5 µM,,"CC(C)CC(=O)N1CCN(S(=O)(=O)c2cc([N+](=O)[O-])ccc2Sc2cc(Cl)ccc2Cl)CC1 [Compound 152, 1-(4-(2-(2,5-Dichlorophenylthio)-5-nitrophenylsulfonyl)piperazin-1-yl)-3-methylbutan-1-one]"
> 5 µM,,"O=C(c1ccc(C(F)(F)F)cc1)N1CCN(S(=O)(=O)c2cc([N+](=O)[O-])ccc2Sc2cc(Cl)ccc2Cl)CC1 [Compound 153, (4-(2-(2,5-Dichlorophenylthio)-5-nitrophenylsulfonyl)piperazin-1-yl)(4-(trifluoromethyl)phenyl)methanone]"
> 5 µM,,N#Cc1ccc(Oc2cc(Cl)cc(Cl)c2)c(S(=O)(=O)N2CCN(C(=O)Oc3ccc([N+](=O)[O-])cc3)CC2)c1 [Compound 155]
> 5 µM,,COc1ccc(OC(=O)N2CCN(S(=O)(=O)c3cc(C#N)ccc3Oc3cc(Cl)cc(Cl)c3)CC2)cc1 [Compound 156]
> 5 µM,,Cc1ccc(OC(=O)N2CCN(S(=O)(=O)c3cc(C#N)ccc3Oc3cc(Cl)cc(Cl)c3)CC2)cc1 [Compound 157]
> 5 µM,,N#Cc1ccc(Oc2cc(Cl)cc(Cl)c2)c(S(=O)(=O)N2CCN(C(=O)OCCCCCl)CC2)c1 [Compound 158]
> 5 µM,,C=CCOC(=O)N1CCN(S(=O)(=O)c2cc(C#N)ccc2Oc2cc(Cl)cc(Cl)c2)CC1 [Compound 159]
> 5 µM,,"O=C(CCCCl)N1CCN(S(=O)(=O)c2cc([N+](=O)[O-])ccc2Sc2cc(Cl)ccc2Cl)CC1 [Compound 160, 4-Chloro-1-(4-(2-(2,5-dichlorophenylthio)-5-nitrophenylsulfonyl)piperazin-1-yl)butan-1-one]"
> 5 µM,,"O=C(C1CCC1)N1CCN(S(=O)(=O)c2cc([N+](=O)[O-])ccc2Sc2cc(Cl)ccc2Cl)CC1 [Compound 161, Cyclobutyl(4-(2-(2,5-dichlorophenylthio)-5-nitrophenylsulfonyl)piperazin-1-yl)methanone]"
> 5 µM,,"O=C(C1CCCCC1)N1CCN(S(=O)(=O)c2cc([N+](=O)[O-])ccc2Sc2cc(Cl)ccc2Cl)CC1 [Compound 162, Cyclohexyl(4-(2-(2,5-dichlorophenylthio)-5-nitrophenylsulfonyl)piperazin-1-yl)methanone]"

Ki (CCR3),melting point,Structure (SMILES)
> 5 µM,,"O=C(c1ccccc1)N1CCN(S(=O)(=O)c2cc([N+](=O)[O-])ccc2Sc2cc(Cl)ccc2Cl)CC1 [Compound 163, (4-(2-(2,5-Dichlorophenylthio)-5-nitrophenylsulfonyl)piperazin-1-yl)(phenyl)methanone]"
> 5 µM,,"O=C(c1ccc(Cl)cc1)N1CCN(S(=O)(=O)c2cc([N+](=O)[O-])ccc2Sc2cc(Cl)ccc2Cl)CC1 [Compound 164, (4-Chlorophenyl)(4-(2-(2,5-dichlorophenylthio)-5-nitrophenylsulfonyl)-piperazin-1-yl)methanone]"
> 5 µM,,"COc1ccc(C(=O)N2CCN(S(=O)(=O)c3cc([N+](=O)[O-])ccc3Sc3cc(Cl)ccc3Cl)CC2)cc1 [Compound 165, (4-Methoxyphenyl)(4-(2-(2,5-dichlorophenylthio)-5-nitrophenylsulfonyl)-piperazin-1-yl)methanone]"
,199 to 202 °C,"O=C(c1ccco1)N1CCN(S(=O)(=O)c2cc([N+](=O)[O-])ccc2Sc2cc(Cl)ccc2Cl)CC1 [Compound 166, (4-(2-(2,5-Dichlorophenylthio)-5-nitrophenylsulfonyl)piperazin-1-yl)(furan-2-yl)methanone]"
> 5 µM,190 to 193 °C,"Cc1ccc(C)c(Sc2ccc([N+](=O)[O-])cc2S(=O)(=O)N2CCN(C(=O)c3ccccc3)CC2)c1 [Compound 172, (4-(2-(2,5-Dimethylphenylthio)-5-nitrophenylsulfonyl)piperazin-1-yl)(phenyl)methanone]"
> 5 µM,,"Cc1ccc(C)c(Sc2ccc([N+](=O)[O-])cc2S(=O)(=O)N2CCN(C(=O)c3ccc(Cl)cc3)CC2)c1 [Compound 173, (4-Chlorophenyl)(4-(2-(2,5-dimethylphenylthio)-5-nitrophenylsulfonyl)-piperazin-1-yl)methanone]"
> 5 µM,,"COc1ccc(C(=O)N2CCN(S(=O)(=O)c3cc([N+](=O)[O-])ccc3Sc3cc(C)ccc3C)CC2)cc1 [Compound 174, (4-(2-(2,5-Dimethylphenylthio)-5-nitrophenylsulfonyl)piperazin-1-yl)(4-methoxyphenyl)methanone]"
> 5 µM,,"CC(C)CC(=O)N1CCN(S(=O)(=O)c2cc([N+](=O)[O-])ccc2Oc2cc(Cl)ccc2Cl)CC1 [Compound 177, 1-(4-(2-(2,5-Dichlorophenoxy)-5-nitrophenylsulfonyl)piperazin-1-yl)-3-methylbutan-1-one]"
> 5 µM,206 to 209 °C,"O=C(c1ccccc1)N1CCN(S(=O)(=O)c2cc([N+](=O)[O-])ccc2Oc2cc(Cl)ccc2Cl)CC1 [Compound 182, (4-(2-(2,5-Dichlorophenoxy)-5-nitrophenylsulfonyl)piperazin-1-yl)(phenyl)methanone]"
> 5 µM,,"COc1ccc(C(=O)N2CCN(S(=O)(=O)c3cc([N+](=O)[O-])ccc3Oc3cc(Cl)ccc3Cl)CC2)cc1 [Compound 184, (4-(2-(2,5-Dichlorophenoxy)-5-nitrophenylsulfonyl)piperazin-1-yl)(4-methoxyphenyl)methanone]"
> 5 µM,,"O=C(c1ccco1)N1CCN(S(=O)(=O)c2cc([N+](=O)[O-])ccc2Oc2cc(Cl)ccc2Cl)CC1 [Compound 185, (4-(2-(2,5-Dichlorophenoxy)-5-nitrophenylsulfonyl)piperazin-1-yl)(furan-2-yl)methanone]"
> 5 µM,,"COc1ccc(C(=O)N2CCN(S(=O)(=O)c3cc([N+](=O)[O-])ccc3Oc3cc(C)ccc3C)CC2)cc1 [Compound 189, (4-(2-(2,5-Dimethylphenoxy)-5-nitrophenylsulfonyl)piperazin-1-yl)(4-methoxyphenyl)methanone]"
> 5 µM,,"Cc1ccc(C)c(Oc2ccc([N+](=O)[O-])cc2S(=O)(=O)N2CCN(C(=O)c3ccco3)CC2)c1 [Compound 190, (4-(2-(2,5-Dimethylphenoxy)-5-nitrophenylsulfonyl)piperazin-1-yl)(furan-2-yl)methanone]"
≤ 0.05 µM,,"C=CCNC(=O)N1CCN(S(=O)(=O)c2cc([N+](=O)[O-])ccc2Sc2cc(Cl)ccc2Cl)CC1 [Compound 191, N-Allyl-4-(2-(2,5-dichlorophenylthio)-5-nitrophenylsulfonyl)piperazine-1-carboxamide]"
> 5 µM,,"Cc1ccc(NC(=O)N2CCN(S(=O)(=O)c3cc([N+](=O)[O-])ccc3Sc3cc(Cl)ccc3Cl)CC2)cc1 [Compound 193, 4-(2-(2,5-Dichlorophenylthio)-5-nitrophenylsulfonyl)-N-p-tolylpiperazine-1-carboxamide]"
> 5 µM,,"N#Cc1ccc(NC(=O)N2CCN(S(=O)(=O)c3cc([N+](=O)[O-])ccc3Sc3cc(Cl)ccc3Cl)CC2)cc1 [Compound 194, N-(4-Cyanophenyl)-4-(2-(2,5-dichlorophenylthio)-5-nitrophenylsulfonyl)-piperazine-1-carboxamide]"
> 5 µM,,"O=C(Nc1ccc([N+](=O)[O-])cc1)N1CCN(S(=O)(=O)c2cc([N+](=O)[O-])ccc2Sc2cc(Cl)ccc2Cl)CC1 [Compound 195, 4-(2-(2,5-Dichlorophenylthio)-5-nitrophenylsulfonyl)-N-(4-nitrophenyl)-piperazine-1-carboxamide]"
≤ 0.05 µM,,CCOC(=O)CCNC(=S)N1CCN(S(=O)(=O)c2cc([N+](=O)[O-])ccc2Sc2cc(Cl)ccc2Cl)CC1 [Compound 198]

Structure (SMILES),Ki (CCR3),melting point
N/C(=N\[N+](=O)[O-])N1CCN(S(=O)(=O)c2cc([N+](=O)[O-])ccc2Oc2cc(Cl)cc(Cl)c2)CC1 [Compound 154],> 5 µM,
